Assay results reported in patent US20230219956A1 (BETTA PHARMACEUTICALS CO.,LTD, priority 2019, published 2023).

Columns and labels:
MIA-PACA-2 cells = assay: Cell proliferation assay, MIA-PACA-2 cells (Cell-titer Glo); format: cell-based; conditions: Homo sapiens, 96 h incubation
Procedure: (§1) Pave the MIA-PACA-2 cells into a 96-well ultra-low adsorption plate at 600 cells, 160 μL/well. After incubating overnight, compound solutions of gradient concentration was prepared, and added 40 μL of DMSO solution of the test compound of each concentration to the cells of each well. The final concentration of the compound is 10000, 2000, 400, 80, 16, 3.2, 0.64, 0.12, 0.025, 0 nM (the final concentration of DMSO is 0.25%). Incubated for 96 h at 37° C. and 5% CO2. 50 μL of Cell-titer Glo working solution was added to each well, shaked and mixed, and incubated at room temperature for 10 minutes. The multi-functional microplate reader read the luminescence value, and converted the luminescence value reading into inhibition percentage.
(§2) Inhibition percentage=(maximum value−reading)/(maximum value−minimum value)*100.
(§3) The “maximum value” was the DMSO control, the “minimum value” indicates the cell-free control group.
(§4) Graphpad Prism software was used to perform curve fitting and obtain IC50 value.
Refer to Table 3 for the IC50 data of some compounds in the examples inhibiting MIA-PACA-2 cells.

H358 cells = assay: Cell proliferation assay, H358 cells (Cell-titer Glo); format: cell-based; conditions: Homo sapiens, NCI-H358, 96 h incubation
Procedure: as §1, with “the H358” for “the MIA-PACA-2”, “cells on” for “cells into”, “plate with 2000 cells and 190” for “plate at 600 cells, 160”, “added 10” for “added 40”, “10000, 3333.3, 1111.1, 370.4, 123.5, 41.2, 13.7, 4.6, 1.5,” for “10000, 2000, 400, 80, 16, 3.2, 0.64, 0.12, 0.025,”
as §2, §3, §4
Refer to table 3 for the IC50 data of some compounds in the Examples for inhibiting H358 cells.

| SMILES | IC50 (MIA-PACA-2 cells) | IC50 (H358 cells) |
| --- | --- | --- |
| C=CC(=O)N1CC2(CCN(c3nc(C4CCN(C(=O)OC)CC4)nc4c(OCC(F)(F)F)c(-c5c(C)ccc6[nH]ncc56)c(C=C)cc34)CC2)C1 [Example 62, Methyl 4-(4-(2-acryloyl-2,7-diazspiro [3.5]nonan-7-yl)-7-(5-methyl-1H-indazole-4-yl)-8-(2,2,2-trifluoroethoxy)-6-vinylquinazolin-2-yl) piperidine-1-carboxylic acid] | 43.5 nM | 29.3 nM |
| C=CC(=O)N1CC2(CCN(c3nc(C4CCN(C)CC4)nc4c(OCC(F)(F)F)c(-c5c(C)ccc6[nH]ncc56)c(C5CC5)cc34)CC2)C1 [Example 16] | 4.8 nM | 3.2 nM |
| C=CC(=O)N1CC2(CCN(c3nc(C4CN(C5CCC5)C4)nc4c(OCC(F)(F)F)c(-c5c(C)ccc6[nH]ncc56)c(CC)cc34)CC2)C1 [Example 43, 1-(7-(2-(1-cyclobutylazocyclobutane-3-yl)-6-ethyl-7-(5-methyl-1H-indazole-4-yl)-8-(2,2,2-trifluoroethoxy)quinazolin-4-yl)-2,7-diazarospiro [3.5]nonan-2-yl) propyl-2-en-1-one] | 378 nM | 315 nM |
| C=CC(=O)N1CC2(CCN(c3nc(C4CCN(C)CC4)nc4c(OC)c(-c5c(C)ccc6[nH]ncc56)c(Cl)cc34)CC2)C1 [Example 12, 1-(7-(6-chloro-8-methoxy-7-(5-methyl-1H-indazol-4-yl)-2-(1-methylpiperidine-4-yl)-quinazolin-4-yl)-2,7-diazaspiro[3.5]nonan-2-yl)prop-2-en-1-one] | 107 nM | 76.2 nM |
| C=CC(=O)N1CC2(CCN(c3nc(C4CCN(C)CC4)nc4c(OCC(F)F)c(-c5c(C)ccc6[nH]ncc56)c(C5CC5)cc34)CC2)C1 [Example 24, 1-(7-(6-cyclopropyl-8-(2,2-difluoroethoxy)-7-(5-methyl-1H-indazol-4-yl)-2-(1-methylpiperidin-4-yl)quinazolin-4-yl)-2,7-diazaspiro[3.5]nonan-2-yl)prop-2-en-1-one] | 14.5 nM | 17.7 nM |
| C=CC(=O)N1CC2(CCN(c3nc(C4CCN(C5COC5)CC4)nc4c(OCC(F)(F)F)c(-c5c(C)ccc6[nH]ncc56)c(CC)cc34)CC2)C1 [Example 37] | 23.4 nM | 18.4 nM |
| C=CC(=O)N1CC2(CCN(c3nc(C4CCN(C)CC4)nc4c(OCC(C)(C)O)c(-c5c(C)ccc6[nH]ncc56)c(C=C)cc34)CC2)C1 [Example 47, 1-(7-(8-(2-hydroxy-2-methylpropoxy)-7-(5-methyl-1H-indazol-4-yl)-2-(1-methylpiperidin-4-yl)-6-vinylquinazoline-4-yl)-2,7-diazaspiro[3.5]nonan-2-yl)prop-2-en-1-one] | 47.7 nM | 39 nM |
| C=CC(=O)N1CC2(CCN(c3nc(C4CCN(C5CCC5)CC4)nc4c(OCC(F)(F)F)c(-c5c(C)ccc6[nH]ncc56)c(C=C)cc34)CC2)C1 [Example 69, 1-(7-(2-(1-cyclobutylpiperidin-4-yl)-7-(5-methyl-1H-indazol-4-yl)-8-(2,2,2-trifluoroethoxy)-6-vinylquinazolin-4-yl)-2,7-diazspiro [3.5]nonan-2-yl) propyl-2-en-1-one] | 3.7 nM | 3.4 nM |
| C=CC(=O)N1CC2(CCN(c3nc(C4CCN(C)CC4)nc4c(OCC)c(-c5c(C)ccc6[nH]ncc56)c(C=C)cc34)CC2)C1 [Example 11, 1-(7-(8-ethoxy-7-(5-methyl-1H-indazol-4-yl)-2-(1-methylpiperidin-4-yl)-6-vinylquinazolin-4-yl)-2,7-diazaspiro[3.5]nonan-2-yl)prop-2-en-1-one] | 4.8 nM | 4.7 nM |
| C=CC(=O)N1CC2(CCN(c3nc(C4CCNCC4)nc4c(OCC(F)(F)F)c(-c5c(C)ccc6[nH]ncc56)c(C=C)cc34)CC2)C1 [Example 63, 1-(7-(7-(5-methyl-1H-indazol-4-yl)-2-(piperidin-4-yl)-8-(2,2,2-trifluoroethoxy)-6-vinylquinazoline-4-yl)-2,7-diazaspiro[3.5]nonan-2-yl)prop-2-en-1-one] | 406 nM | 187 nM |
| C=CC(=O)N1CC2(CCN(c3nc(C4CCN(C)CC4)nc4c(OCCOC)c(-c5c(C)ccc6[nH]ncc56)c(CC)cc34)CC2)C1 [Example 30] | 171 nM | 60.5 nM |
| C=CC(=O)N1CC2(CCN(c3nc(C4CCN(C(C)C)CC4)nc4c(OCC(F)(F)F)c(-c5c(C)ccc6[nH]ncc56)c(C=C)cc34)CC2)C1 [Example 71] | 8.3 nM | 7.4 nM |
| C=CC(=O)N1CC2(CCN(c3nc(C4CCN(C5CC(O)C5)CC4)nc4c(OCC(F)(F)F)c(-c5c(C)ccc6[nH]ncc56)c(C=C)cc34)CC2)C1 (stereo not shown) [Example 80] | 46.1 nM | 14.9 nM |
| C=CC(=O)N1CC2(CCN(c3nc(C4CN(C5COC5)C4)nc4c(OCC(F)(F)F)c(-c5c(C)ccc6[nH]ncc56)c(CC)cc34)CC2)C1 [Example 40, 1-(7-(6-ethyl-7-(5-methyl-1H-indazole-4-yl)-2-(1-(oxacyclobutan-3-yl)azacyclobutane-3-yl)-8-(2,2,2-trifluoroethoxy)quinazolin-4-yl) 2,7-diazspiro [3.5]nonan-2-yl) propyl-2-en-1-one] | 47.7 nM | 39 nM |

More lines, in order of falling IC50 (MIA-PACA-2 cells), values ahead:

| IC50 (MIA-PACA-2 cells) | IC50 (H358 cells) | SMILES |
| --- | --- | --- |
| 2580 nM | 2520 nM | C=CC(=O)N1CC2(CCN(c3nc(C4CCN(C)CC4)nc4c(OCC(F)(F)F)c(-c5c(C)ncc6[nH]ncc56)c(C=C)cc34)CC2)C1 [Example 56, 1-(7-(7-(5-methyl-1H-pyrazolo [3,4-c]pyridin-4-yl)-2-(1-methylpiperidine-4-yl)-8-(2,2,2-trifluoroethoxy)-6-vinylquinazolin-4-yl)-2,7-diazaspiro[3.5]nonan-2-yl) prop-2-en-1-one] |
| 1540 nM | 8440 nM | C=CC(=O)N1CC2(CCN(c3nc(C4CCN(C)CC4)nc4c(OCC(F)(F)F)c(-c5ccc6[nH]ncc6c5)c(C5CC5)cc34)CC2)C1 [Example 17] |
| 208 nM | 85.8 nM | C=Cc1cc2c(N3CCC4(CC3)CN(C(=O)C(=C)F)C4)nc(C3CCN(CCC#N)CC3)nc2c(OCC(F)(F)F)c1-c1c(C)ccc2[nH]ncc12 [Example 86, 3-(4-(4-(2-(2-Fluoroacryloyl)-2,7-diazspiro [3.5]nonan-7-yl)-7-(5-methyl-1H-indazole-4-yl)-8-(2,2,2-trifluoroethoxy)-6-vinylquinazolin-2-yl)piperidin-1-yl) propionitrile] |
| 78 nM | 97.8 nM | C=CC(=O)N1CC2(CCN(c3nc(C4CN(CCC#N)C4)nc4c(OCC(F)(F)F)c(-c5c(C)ccc6[nH]ncc56)c(CC)cc34)CC2)C1 [Example 39, 3-(3-(4-(2-acryloyl-2,7-diazaspiro[3.5]nonan-7-yl)-6-ethyl-7-(5-methyl-1H-indazol-4-yl)-8-(2,2,2-trifluoroethoxy)quinazolin-2-yl)azetidin-1-yl)propionitrile] |
| 32.6 nM | 13 nM | C=CC(=O)N1CC2(CCN(c3nc(C4CCN(C)CC4)nc4c(OCC)c(-c5c(C)ccc6[nH]ncc56)c(CC)cc34)CC2)C1 [Example 25] |
| 29.6 nM | 19.6 nM | C=CC(=O)N1CC2(CCN(c3nc(C4CN(C5CCOCC5)C4)nc4c(OCC(F)(F)F)c(-c5c(C)ccc6[nH]ncc56)c(CC)cc34)CC2)C1 [Example 42, 1-(7-(6-ethyl-7-(5-methyl-1H-indazole-4-yl)-2-(1-(tetrahydro-2H-pyran-4-yl)azacyclobutane-3-yl)-8-(2,2,2-trifluoroethoxy)quinazolin-4-yl)-2,7-diazspiro [3.5]nonan-2-yl) propyl-2-en-1-one] |
| 10.9 nM | 9.6 nM | C=CC(=O)N1CC2(CCN(c3nc(C4CCN(CCOC)CC4)nc4c(OCC(F)(F)F)c(-c5c(C)ccc6[nH]ncc56)c(CC)cc34)CC2)C1 [Example 35, 1-(7-(6-ethyl-2-(1-(2-methoxyethyl)piperidin-4-yl)-7-(5-methyl-1H-indazol-4-yl)-8-(2,2,2-trifluoroethoxy)quinazolin-4-yl)-2,7-diazaspiro[3.5]nonan-2-yl)prop-2-en-1-one] |
| 10.1 nM | 10.6 nM | C=CC(=O)N1CC2(CCN(c3nc(C4CCN(CC(C)(C)O)CC4)nc4c(OCC(F)(F)F)c(-c5c(C)ccc6[nH]ncc56)c(CC)cc34)CC2)C1 [Example 36, 1-(7-(6-ethyl-2-(1-(2-hydroxy-2-methylpropyl)piperidin-4-yl)-7-(5-methyl-1H-indazol-4-yl)-8-(2,2,2-trifluoroethoxy)quinazolin-4-yl)-2,7-diazaspiro[3.5]nonan-2-yl) prop-2-en-1-one] |
| 6.9 nM | 6.4 nM | C=CC(=O)N1CC2(CCN(c3nc(C4CCN(CCC#N)CC4)nc4c(OCC(F)(F)F)c(-c5c(C)ccc6[nH]ncc56)c(C=C)cc34)CC2)C1 [Example 59, 3-(4-(4-(2-acryloyl-2,7-diazazospiro [3.5]nonan-7-yl)-7-(5-methyl-1H-indazole-4-yl)-8-(2,2,2-trifluoroethoxy)-6-vinylquinazolin-2-yl)piperidin-1-yl) propionitrile] |
